In brackets after ≈: the same amount, converted by molar mass. Like-named read-outs stand apart in the source and are kept apart here.
Key:
isolated rat uterus = assay: block of the contractile response to histamine of the isolated rat uterus; type: cell-based, rat (Sprague Dawley, female); details: read-out: EC50 (concentration of experimental compound required to block the contractile effect of histamine by 50%)
Method: Further evaluation involved testing the ability of the piperidinyl-alkyl-benzamides to block the response to histamine by the isolated rat uterus. Female Sprague Dawley rats weighing approximately 150 g were injected with diethylstilbesterol (0.15 mg/rat) fifteen hours prior to sacrifice. […] The results are expressed as the % change in the contractile response to histamine relative to placebo-histamine evaluation in Table III.

histamine H2 receptor [1] = assay: histamine H2 antagonist activity in vivo: block of histamine-stimulated gastric acid secretion in the lumen-perfused anesthetized rat; set-up: species or system rat (Sprague Dawley); details: urethane-anesthetized rat; antagonist 0.24 mg/kg rapid I.V.; histamine 0.13 μmol/kg/hr; compounds as hydrochloride salts
Method: Sprague Dawley rats weighing between 150-200 g were used for the evaluations. Perfusion was carried out with 5% glucose solution at 37° C. Administration of histamine and test compounds was carried out by rapid I.V. injection via cannulated jugular vein. Doses of 0.13 μmol/kg/hr. of histamine were used, and 0.24 mg/kg of antagonist test compound.

histamine H2 receptor [2] = biological target: T1, histamine H2 receptor (Cavia porcellus, UniProt P47747); assay: histamine H2 antagonism activity on the isolated guinea pig atrium (chronotropic response to histamine); type: cell-based, guinea pig (Hartley strain); details: experimental compound 10 μg/ml, histamine 0.05-2.5 μg/ml
T1 construct: histamine chronotropic response
T1 sequence (P47747 whole entry): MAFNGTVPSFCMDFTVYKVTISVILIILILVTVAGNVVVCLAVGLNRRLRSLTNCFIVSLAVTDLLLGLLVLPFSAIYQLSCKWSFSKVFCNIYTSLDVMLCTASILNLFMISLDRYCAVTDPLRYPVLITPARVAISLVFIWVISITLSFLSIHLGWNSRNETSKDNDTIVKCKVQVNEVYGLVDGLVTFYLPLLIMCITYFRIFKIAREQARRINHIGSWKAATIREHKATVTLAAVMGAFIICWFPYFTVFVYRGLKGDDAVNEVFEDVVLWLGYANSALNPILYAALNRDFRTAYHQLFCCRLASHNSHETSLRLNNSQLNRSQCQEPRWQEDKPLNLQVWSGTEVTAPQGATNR
Method: The histamine H2 antagonism activity of these piperidinyl-alkyl-benzamide compounds was tested on the isolated guinea pig atrium. The atria from Hartley strain guinea pigs were dissected and suspended in 25 ml of McEwen's solution and attached to a transducer. Spontaneous atrial rate was determined from the recorder tracing. Chronotropic responses to increasing concentrations of histamine (0.05-2.5 μg/ml) were evaluated in the presence of placebo or experimental compound. Results are expressed in Table I as the ratio of concentration of histamine required to increase atrial rate by 50 beats/minute:concentration of histamine required to increase atrial rate by 50 beats/minute in the presence of experimental compound, 10 μg/ml.

histamine H2 receptor [3] = assay: histamine H2-receptor antagonist activity in standard pharmacological tests (Tables I, II and III); details: result in words
Method: The histamine H2 antagonism activity of these piperidinyl-alkyl-benzamide compounds was tested on the isolated guinea pig atrium. The atria from Hartley strain guinea pigs were dissected and suspended in 25 ml of McEwen's solution and attached to a transducer. Spontaneous atrial rate was determined from the recorder tracing. Chronotropic responses to increasing concentrations of histamine (0.05-2.5 μg/ml) were evaluated in the presence of placebo or experimental compound. […]
The piperidine-alkyl-benzamides, as their hydrochloride salts, were evaluated for histamine H2 antagonist activity, in vivo, by their ability to block the stimulation of acid secretion by histamine from the lumen-perfused anesthetized (urethane) rat preparation as described in Ash and Shield, Br. J. Pharmacol. Chemotherapy 27, 427 (1966) and Durant, et al., J. Med. Chem. 18, 905 (1975). […]
Further evaluation involved testing the ability of the piperidinyl-alkyl-benzamides to block the response to histamine by the isolated rat uterus. […] Contractile responses were evaluated after the addition of placebo; after the addition of experimental compounds; and after the addition of histamine (25 μg/ml). The results are expressed as the % change in the contractile response to histamine relative to placebo-histamine evaluation in Table III. […]
The product was evaluated according to Tables I, II, and III above.

[4] = isolated rat uterus, histamine 25 μg/ml, diethylstilbesterol-primed

Structure (SMILES) | EC50 (isolated rat uterus; [4]) [µg/mL] | MEAN % INHIBITION OF GASTRIC ACID SECRETION (histamine H2 receptor [1]) [%] | HISTAMINE RATIO (concentration of histamine required to increase atrial rate by 50 beats/minute : same in the presence of experimental compound) (histamine H2 receptor [2]) | histamine H2-receptor antagonist activity (histamine H2 receptor [3]) | EC50 (isolated rat uterus; Rattus norvegicus) [µg/mL]
O=C(NCC1CCNCC1)c1ccccc1 [Example 1, N-(4-Piperidinylmethyl)benzamide] | 0.38 (≈ 1.74 µM) | 40 ± 6 | 0.005 | significant amount of histamine H2 --receptor antagonist activity | 
Cc1ccc(C(=O)NCC2CCNCC2)cc1 [Example 2, N-(4-piperidinylmethyl)-p-methylbenzamide] | 0.31 (≈ 1.33 µM) | 52 ± 5 | 0.004 |  | 
CN/C(=N/CCSCc1nc[nH]c1C)NC#N [Cimetidine, reference compound] |  | 78 ± 8 | 0.0025 |  | 0.3 (≈ 1.19 µM)

Reference: patent US4310532A, “Methods and piperidinyl-alkyl-benzamide composition for inhibiting H2 histamine receptors” (The University of Toledo, priority 1980, dated 1982)
